Laboratory results: EP2926811A1, “ARTEMETHER-CONTAINING PHARMACEUTICAL COMPOSITION, PREPARATION, AND USE THEREOF” (Kunming Pharmaceutical Corp., priority 2012, dated 2014)
Read-outs that look alike come from different tables or passages of the source.

Experiments:
Format in all cases: cell-based
HL-60 cells = test: modified MTT method, proliferation of HL-60 cells; conditions: Homo sapiens, read-out: IC50 on the growth of HL-60 cells
Procedure: (§1) Five test concentrations 2, 10, 50, 250 and 500 µM were set for each of five derivatives of artemisinin, artemether drug substance, artemisinin, dihydroartemisinin, artesunate were dissolved with dimethyl sulfoxide (DMSO), while the lyophilized powder of artemether was dissolved with normal saline (N.S.), followed by addition of a certain amount of RPMI 1640 complete culture solution to formulate a high-concentration solution, and each of the low-concentration solutions was formulated by proportionate dilution from the high-concentration solution.
(§2) The concentrations of DMSO contained in the solutions at the two relatively high concentrations 500 and 250 µM for the artemether drug substance, artemisinin, dihydroartemisinin, artesunate, used as solvent controls, were formulated with […] culture solution, at which time the test concentrations of DMSO were 1% and 0.5%. The concentrations of the excipients contained in the solutions at the two relatively high concentrations 500 and 250 µM for the preparation of lyophilized powder of artemether were used as solvent controls.
(§3) The positive control was an anti-cancer drug adriamycin (ADM), which was set at three test concentrations (final concentrations) of 0.1, 1 and 10 µg/ml. To ADM stock solution (1 mg/ml) a certain amount of PRMI 1640 complete culture solution was added, to formulate a high-concentration solution, and each of the low-concentration solutions were formulated by proportionate dilutions from the high-concentration solution.
(§4) HL-60: (human promyelocytic leukemia cell line); K562 (human chronic myelocytic leukemia cell line); HT-29 (human colon cancer cell line); PC-3 (human prostate cancer cell line); A549 (human non-small cell lung cancer cell line); MKN-28 (human gastric cancer cell line); Hep2 (human laryngeal cancer cell line), all of which were purchased from Cell Bank of Shanghai Institutes for Biological Sciences, the Chinese Academy of Sciences.
(§5) Influence of the five test samples on the proliferation of 7 human tumor cell lines was determined via a modified MTT method.
(§6) Cells in logarithmic growth phase were taken, adjusted to a certain concentration and then added into a 96 well culture plate. After culture of adherent cells for a period until adherence, the test samples were added; and for suspension cells, the test samples were added after inoculation. 5 test concentrations 2, 10, 50, 250 and 500 µM were set, with 3 parallel wells for each concentration, 10 µl/well; the solvent controls were 0.5% and 1% of isovolumetric DMSO, and the positive controls was ADM at 3 concentrations 0.1, 1 and 10 µg/ml. The samples were loaded followed by culture for a period of time in an incubator at 37°C, 5% CO2, followed by addition of MTT (5 mg/ml) at 20 µl/well, and continued to be cultured for a period of time and added with a three-combined solution [10% SDS - 5% isobutanol - 0.012 mol/L HCl (W/V/V)]. After dissolving in uniformity, it was continued to be placed in the incubator at 37°C, 5% CO2 for a period of time, and the OD value of each well was determined under a wavelength of 570 nm with a microplate reader, according to which the results were calculated.
(§7) The cellular proliferation inhibition rate was calculated in accordance with the following equation: Inhibition rate (%) = (OD valuecontrol well-OD valuesample well)/OD valuecontrol well × 100% [formula]
(§8) When the inhibition rate of DMSO on cells was more than 15%, calculation was carried out using the following equation: Inhibition rate (%) = (OD valuesolvent group-OD valueadministered well)/OD valuesolvent group × 100% [formula]
(§9) The inhibition rate was calculated by using Microsoft Excel 2003, and median inhibitory concentration IC50 was calculated with a LOGIT method, which was used as an indicator for judging the inhibitory capability.

K562 cells = test: modified MTT method, proliferation of K562 cells; conditions: Homo sapiens, read-out: IC50 on the growth of K562 cells
Procedure: as §1, §2, §3, §4, §5, §6, §7, §8, §9

A549 cells = test: modified MTT method, proliferation of A549 cells; conditions: Homo sapiens, read-out: IC50 on the growth of A549 cells
Procedure: as §1, §2, §3, §4, §5, §6, §7, §8, §9

Hep2 cells = test: modified MTT method, proliferation of Hep2 cells; conditions: Homo sapiens, HEp-2, 72 h, secondary screening
Procedure: as §1, §2, §3, §4, §5, §6, §7, §8, §9
(§10) According to the results of preliminary screening, further experiments were adjusted such that more sensitive cell lines were screened out. […]

MKN-28 cells = test: modified MTT method, proliferation of MKN-28 cells; conditions: Homo sapiens, MKN-28, 72 h, secondary screening
Procedure: as §1, §2, §3, §4, §5, §6, §7, §8, §9, §10

PC-3 cells = test: modified MTT method, proliferation of PC-3 cells; conditions: Homo sapiens, read-out: IC50 on the growth of PC-3 cells
Procedure: as §1, §2, §3, §4, §5, §6, §7, §8, §9

HT-29 cells = test: modified MTT method, proliferation of HT-29 cells; conditions: Homo sapiens
Procedure: as §1, §2, §3, §4, §5, §6, §7, §8, §9, §10

COc1cccc2c1C(=O)c1c(O)c3c(c(O)c1C2=O)C[C@@](O)(C(=O)CO)C[C@@H]3O[C@H]1C[C@H](N)[C@H](O)[C@H](C)O1 [ADM, adriamycin]
IC50 (HL-60 cells; HL-60, 24 h, Batch 1, 24 h): 9240 nM | IC50 (HL-60 cells; HL-60, 24 h, Batch 2, 24 h): 4190 nM | IC50 (HL-60 cells; HL-60, 48 h, Batch 1, 48 h): 1720 nM | IC50 (HL-60 cells; HL-60, 48 h, Batch 2, 48 h): 160 nM | IC50 (HL-60 cells; HL-60, 72 h, Batch 1, 72 h): 780 nM | IC50 (HL-60 cells; HL-60, 72 h, Batch 2, 72 h): 570 nM | IC50 (K562 cells; K562, 24 h, Batch 1, 24 h): 7090 nM | IC50 (K562 cells; K562, 24 h, Batch 2, 24 h): 5760 nM | IC50 (K562 cells; K562, 24 h, Batch 3, 24 h): 2590 nM | IC50 (K562 cells; K562, 48 h, Batch 1, 48 h): 1900 nM | IC50 (K562 cells; K562, 48 h, Batch 2, 48 h): 240 nM | IC50 (K562 cells; K562, 48 h, Batch 3, 48 h): 1690 nM | IC50 (K562 cells; K562, 72 h, Batch 1, 72 h): 170 nM | IC50 (K562 cells; K562, 72 h, Batch 2, 72 h): 9.93 nM | IC50 (K562 cells; K562, 72 h, Batch 3, 72 h): 740 nM | IC50 (A549 cells; A549, 24 h, Batch 1, 24 h): 38800 nM | IC50 (A549 cells; A549, 24 h, Batch 2, 24 h): > 100000 nM | IC50 (A549 cells; A549, 48 h, Batch 1, 48 h): 10700 nM | IC50 (A549 cells; A549, 48 h, Batch 2, 48 h): 620 nM | IC50 (A549 cells; A549, 72 h, Batch 1, 72 h): 760 nM | IC50 (A549 cells; A549, 72 h, Batch 2, 72 h): 190 nM | IC50 (Hep2 cells; Batch 1, read-out: IC50 on the growth of Hep2 cells (72 h)): 410 nM | IC50 (Hep2 cells; Batch 2, read-out: IC50 on the growth of Hep2 cells (72 h)): 260 nM | IC50 (Hep2 cells; Batch 3, read-out: IC50 on the growth of Hep2 cells (72 h)): 1000 nM | IC50 (Hep2 cells; average, read-out: IC50 on the growth of Hep2 cells (72 h)): 510 nM | IC50 (MKN-28 cells; Average, read-out: IC50 on the growth of MKN-28 cells (72 h)): 510 nM | IC50 (MKN-28 cells; Batch 1, read-out: IC50 on the growth of MKN-28 cells (72 h)): 520 nM | IC50 (MKN-28 cells; Batch 2, read-out: IC50 on the growth of MKN-28 cells (72 h)): 530 nM | IC50 (MKN-28 cells; Batch 3, read-out: IC50 on the growth of MKN-28 cells (72 h)): 470 nM | IC50 (PC-3 cells; PC-3, 24 h, Batch 1, 24 h): 33000 nM | IC50 (PC-3 cells; PC-3, 24 h, Batch 2, 24 h): 47800 nM | IC50 (PC-3 cells; PC-3, 48 h, Batch 1, 48 h): 7600 nM | IC50 (PC-3 cells; PC-3, 48 h, Batch 2, 48 h): 9620 nM | IC50 (PC-3 cells; PC-3, 72 h, Batch 1, 72 h): 3160 nM | IC50 (PC-3 cells; PC-3, 72 h, Batch 2, 72 h): 3740 nM | IC50 (HT-29 cells; HT-29, 24 h, preliminary screening, Batch 1, 24 h, read-out: IC50 on the growth of HT-29 cells): 2280 nM | IC50 (HT-29 cells; HT-29, 24 h, preliminary screening, Batch 2, 24 h, read-out: IC50 on the growth of HT-29 cells): 3810 nM | IC50 (HT-29 cells; HT-29, 48 h, preliminary screening, Batch 1, 48 h, read-out: IC50 on the growth of HT-29 cells): 280 nM | IC50 (HT-29 cells; HT-29, 48 h, preliminary screening, Batch 2, 48 h, read-out: IC50 on the growth of HT-29 cells): 590 nM | IC50 (HT-29 cells; HT-29, 72 h, preliminary screening, Batch 1, 72 h, read-out: IC50 on the growth of HT-29 cells): 57 nM | IC50 (HT-29 cells; HT-29, 72 h, preliminary screening, Batch 2, 72 h, read-out: IC50 on the growth of HT-29 cells): 110 nM | IC50 (HT-29 cells; HT-29, 72 h, secondary screening, 72 h, Batch 1, read-out: IC50 on the growth of HT-29 cells (72 h)): 110 nM | IC50 (HT-29 cells; HT-29, 72 h, secondary screening, 72 h, Batch 2, read-out: IC50 on the growth of HT-29 cells (72 h)): 190 nM | IC50 (HT-29 cells; HT-29, 72 h, secondary screening, 72 h, Batch 3, read-out: IC50 on the growth of HT-29 cells (72 h)): 120 nM | IC50 (HT-29 cells; HT-29, 72 h, secondary screening, 72 h, average, read-out: IC50 on the growth of HT-29 cells (72 h)): 110 nM
